From US20150160193A1, “TUMOR CELL ISOLATION/PURIFICATION PROCESS AND METHODS FOR USE THEREOF” (DIATECH ONCOLOGY, priority 2012, published 2015) come the findings set out here.

Read-outs that look alike come from different tables or passages of the source.

Assay [1] deals with Purified breast cancer cells from 67 patient (Pt) biopsies. Briefly: MiCK assay of drug-induced apoptosis, breast cancer specimens. The following applies: for Mean Difference (95% CI) of KU vs Abraxane: drug minus Abraxane; for % >1: share of samples with KU >1; for % >3: share of samples with KU >3; for Mean Difference (95% CI) of KU vs Carbo: drug minus Carbo. It counts as cell-based, human. The protocol: Apoptosis(KU)=(VmaxDrug Candidate Treated−VmaxControl)×60×X/(ODcontrol−ODblank)
Within 24 to 48 hours of collection, the specimen was minced, digested with 0.25% trypsin and 0.08% DNase for 1-2 hours at 37 C.°, and then filtered through a 100 micrometer cell strainer. When necessary, non-viable cells were removed by density gradient centrifugation. The cell suspension was then incubated for 30 min at 37° C. in a tissue culture flask to remove macrophages by adherence. For epithelial tumors lymphocytes were removed by 30 minute incubation with CD2 antibody conjugated magnetic beads for T lymphocytes and CD19 antibody conjugated magnetic beads for B lymphocytes. Remaining macrophages were removed, if necessary, using CD14 antibody conjugated magnetic beads. The final cell suspension was plated into a 96-well half-area plate, 120 microliter aliquot per well. The plate was incubated overnight at 37° C. with 5% carbon dioxide humidified atmosphere. 5×10^4 to 1.5×10^5 cells were seeded per well depending on the cell volume to give adequate well-bottom coverage.
Within 24 to 48 hours of collection, the specimen was treated as follows in order to purify and isolate cells from solid tumors: • Take the specimen out of the transport tube. • Put in a petri dish in 13 ml of PBS+high concentration of antibiotics (200 units/ml Penicillin+200 μg/ml streptomycin) and take measurements and picture of the specimen. […] In that case, one may make the determination to do a “pre-filtration” using sterile gauze over a 50 ml tube. Then proceed with the cell strainer filtration process referenced above. • Centrifuge the filtered cell suspension 1500 RPM 5 min • Discard the supernatant. To the pellet, add 5 ml of red blood cell lysis solution (standard NH4Cl containing lysis solution: Nh4Cl0.15M+KHCO3 10 mM+EDTA-4Na 0.1 mM, pH 7.2), incubate 2-3 min and add 5 ml of RPMI 10% FBS. • Centrifuge 5 min 1500 RPM. Resuspend the pellet in RPMI 10% FBS (1-10 ml depending on the pellet size). • Collect the second fraction in the enzyme and repeat the steps above. • Check the viability of all fractions and pool. Do a cytospin stain with Wright Giemsa to verify the cell content of the population. NOTE: this is done numerous times during the process of purification. • 3) When necessary, non-viable cells were removed by density gradient centrifugation. • Density gradient centrifugation (optiprep): first layer=2 ml cells+4.45 ml optiprep 40% in RPMI, second layer=optiprep 22.5% in RPMI, 3rd layer=0.5 ml of RPMI. Centrifuge at 2000 RPM for 20 min • Collect the viable cell layer, add 10 ml of RPMI 10% FBS, centrifuge at 1500 RPM for 5 min • Resuspend the pellet in RPMI 10% FBS (volume depends on the pellet size and on the next step required). • If mucin is present in the specimen: resuspend the pellet in 10 ml of PBS+20 mM DTT and incubate at 4° C. for 30 min to disintegrate the mucin. Wash with RPMI 1500 rpm for 5 min Resuspend the pellet in RPMI 10% FBS. • If the specimen is highly necrotic with presence of debris: Percoll 20% in HBSS, centrifuge at 800×g for 10 min • 4) The cell suspension was then incubated for 20 min at 37° C. in a tissue culture flask to remove macrophages by adherence. • The size and quantity of the flask and the volume used depends on the amount of cells.

Assay [2] relates to neoplastic cells collected from spleen and abdominal tumor biopsy specimens. As to the kind of experiment: MiCK assay, patient specific cancer cell testing (Example 10). It counts as cell-based, human. The conditions noted are these: for efficacy for this patient, in words: single agents. The protocol:
The experiments were conducted on neoplastic cells collected from spleen and abdominal tumor biopsy specimens from a person. The tumor specimens were of an unknown primary. The experiment consisted of using a MiCK assay, according to the present disclosure, to test the effectiveness of 37 potential anti-cancer drugs, combinations of these drugs, and various concentrations of these drugs.
Apoptotic readings greater than 5.0KU in the MiCK assay are considered to be highly sensitive and are associated with a good clinical response. […] It should be noted that the alkylating agents cyclophosphamide and ifosfamide require hepatic metabolic transformation to their active metabolite, 4HC and 4HI respectively, and therefore cannot be tested directly in vitro. For the MiCK assay their active metabolites, 4HC and 4HI respectively were used.

Where [3] appears, read: kinetic units of apoptosis, mean over N patient samples (at least 9 per drug).
Where [4] appears, read: kinetic units of apoptosis, median over N patient samples.
The mark [5] stands for this setting: person, tumor of unknown primary, maximum apoptotic response over the concentrations tested.
Where [6] appears, read: person, tumor of unknown primary.
[7] abbreviates: KU compared per patient, % of 24 patients.
Setting [8] is: KU compared per patient, % of 11 patients.
The mark [9] stands for this setting: KU compared per patient, % of 35 patients.

With `CC[C@]1(O)C[C@H]2CN(CCc3c([nH]c4ccccc34)[C@@](C(=O)OC)(c3cc4c(cc3OC)N(C=O)[C@H]3[C@@](O)(C(=O)OC)[C@H](OC(C)=O)[C@]5(CC)C=CCN6CC[C@]43[C@@H]65)C2)C1` [Vincristine, vincristine], the “KU Mean” value in assay [1] (setting [3]) is on record as 1.1 KU. Further, the “KU Median” value in assay [1] (setting [4]) is recorded as 1.0 KU. For the same molecule, in assay [2] (setting [5]), the “Max Resp. (KU)” value is reported as 0.9 KU.

For `O=P1(N(CCCl)CCCl)NCCCO1` (centres unmarked) [Cytoxan, cyclophosphamide], in assay [1], the “Cytox = Ifosf +/− 0.57 and both > 1” value is on record as “(55%)”; the “Cytox > Ifosf by more than 0.57 and Cytox > 1” value was “(18%)”; the “Cytox and Ifosf both < 1” value is recorded as “(27%)”; the “KU Mean” value was 2.8 KU. Moreover, in assay [1], the “KU Median” value stood at 2.6 KU and the “Mean Difference (95% CI) of KU vs Ifosphamide” value is reported as 0.34 (−0.07 to 0.76) KU. The “Max Resp. (KU)” value in assay [2] (setting [5]) worked out at 8.4 KU. The “efficacy for this patient, in words” value in assay [2] (setting [6]) was “highly effective results”.

On to `CC(=O)O[C@H]1C(=O)[C@@]2(C)[C@H]([C@H](OC(=O)c3ccccc3)[C@]3(O)C[C@H](OC(=O)[C@H](O)[C@@H](NC(=O)c4ccccc4)c4ccccc4)C(C)=C1C3(C)C)[C@]1(OC(C)=O)CO[C@@H]1C[C@@H]2O` [Taxol, paclitaxel], for which the “KU Mean” value in assay [1] (setting [3]) came out at 2.1 KU. Besides, the “KU Median” value in assay [1] (setting [4]) is 1.9 KU. The “Mean Difference (95% CI) of KU vs Abraxane” value in assay [1] (patient pairwise comparison) was found to be 1.20 KU. Besides, the “Max Resp. (KU)” value in assay [2] (setting [5]) came out at 1.6 KU.

As for `N.N.O=C([O-])C1(C(=O)[O-])CCC1.[Pt+2]` [Carbo, Carboplatin], in assay [1] (setting [7]), the “Carbo = Cisplatin +/− 0.57 and both > 1” value is listed as “(17%)”; the “Carbo > Cisplatin by more than 0.57 and Carbo > 1” value is on record as “(8%)”; the “Cisplatin and Carbo both < 1” value is reported as “(17%)”. Also, the “KU Mean” value in assay [1] (setting [3]) was 1.6 KU. The “KU Median” value in assay [1] (setting [4]) was 1.6 KU. In addition, in assay [1], the “% >1” value was 67% and the “% >3” value came out at 13%. Besides, the “Max Resp. (KU)” value in assay [2] (setting [5]) stood at 6.0 KU.

In the case of `O=P1(NCCCl)OCCCN1CCCl` (centres unmarked) [Ifosfamide, ifosfamide], the “Ifosf > Cytox + 0.57” value in assay [1] (setting [8]) was “(0%)”. Further, the “KU Mean” value in assay [1] (setting [3]) was determined as 1.7 KU. The “KU Median” value in assay [1] (setting [4]) worked out at 1.5 KU. In assay [2] (setting [5]), the “Max Resp. (KU)” value is on record as 2.6 KU.

Consider `COc1cccc2c1C(=O)c1c(O)c3c(c(O)c1C2=O)C[C@@](O)(C(=O)CO)C[C@@H]3O[C@H]1C[C@H](N)[C@H](O)[C@H](C)O1` [Doxo, doxorubicin], for which the “Doxo > Doxil + 0.57” value in assay [1] (KU compared per patient, % of 9 patients) is 4/9 (44%). The “Doxo > Epi + 0.57” value in assay [1] (KU compared per patient, % of 34 patients) is 3/34 (9%). The “KU Mean” value in assay [1] (setting [3]) was 1.9 KU. For the same molecule, the “KU Median” value in assay [1] (setting [4]) amounted to 1.6 KU. Further, the “Mean Difference (95% CI) of KU vs Doxil” value in assay [1] (patient pairwise comparison, drug minus Doxil) is given as 0.56 (−0.07 to 1.18) KU. The “Mean Difference (95% CI) of KU vs Mitox” value in assay [1] (patient pairwise comparison, drug minus Mitox) was 0.63 KU. For the same molecule, the “Max Resp. (KU)” value in assay [2] (setting [5]) stood at 3.5 KU.

Consider `CC(=O)O[C@@]12CO[C@@H]1C[C@H](O)[C@@]1(C)C(=O)[C@H](O)C3=C(C)[C@@H](OC(=O)[C@H](O)[C@@H](NC(=O)OC(C)(C)C)c4ccccc4)C[C@@](O)([C@@H](OC(=O)c4ccccc4)[C@H]21)C3(C)C` [Taxotere, docetaxel], for which, in assay [1] (setting [9]), the “Taxol and Taxotere < 1” value is “(14%)”; the “Taxotere = Taxol +/− 0.57 and both > 1” value is “(17%)”; the “Taxotere > Taxol by more than 0.57 and Taxotere > 1” value is given as “(37%)”. In addition, in assay [1] (KU compared per patient, % of 35 patients, listed as docetaxel), the “Taxotere > Taxol by more than 0.57 and Taxotere > 1” value worked out at 37%. Moreover, the “KU Mean” value in assay [1] (setting [3]) amounted to 2.1 KU. For the same molecule, the “KU Median” value in assay [1] (setting [4]) is reported as 1.9 KU. In addition, in assay [1] (patient pairwise comparison), the “Mean Difference (95% CI) of KU vs Abraxane” value turned out to be 0.98 KU. For the same molecule, the “Mean Difference (95% CI) of KU vs Taxol” value in assay [1] (patient pairwise comparison, drug minus Taxol) turned out to be 0.05 KU. The “Max Resp. (KU)” value in assay [2] (setting [5]) is 2.3 KU.

Regarding `N.N.[Cl][Pt][Cl]` [Cisplatin], the “Cisplatin > Carbo + 0.57” value in assay [1] (setting [7]) is “(58%)”. For the same molecule, the “KU Mean” value in assay [1] (setting [3]) was determined as 2.2 KU. For the same molecule, in assay [1] (setting [4]), the “KU Median” value is on record as 2.3 KU. Moreover, the “Mean Difference (95% CI) of KU vs Carbo” value in assay [1] (patient pairwise comparison) is 0.88 KU; in assay [1] (patient pairwise comparison, listed as cisplatin) it was “APOP>carboplatin”. Further, in assay [1] (patient pairwise comparison, drug minus Oxali), the “Mean Difference (95% CI) of KU vs Oxali” value came out at 0.33 KU. For the same molecule, the “% >1” value in assay [1] was determined as 78%. Further, in assay [1], the “% >3” value is 22%. Further, the “efficacy for this patient, in words” value in assay [2] (setting [6]) is “single drug with the most efficacy”.

On to `O=C1[O][Pt]2([NH][C@@H]3CCCC[C@H]3[NH]2)[O]C1=O` [Oxali, oxaliplatin], for which, in assay [1] (setting [8]), the “Carbo and Cisplatin and Oxali < 1” value is “(9%)”; the “Max (Carbo or Cisplatin) = Oxali +/− 0.57 and both > 1” value is on record as “(36%)”; the “Max (Carbo or Cisplatin) > Oxali by more than 0.57 and Max (Carbo or Cisplatin) > 1” value is “(36%)”; the “Oxali > Max (Carbo or Cisplatin) + 0.57” value is listed as “(9%)”. For the same molecule, the “KU Mean” value in assay [1] (setting [3]) is 1.9 KU. The “KU Median” value in assay [1] (setting [4]) worked out at 1.8 KU. The “Mean Difference (95% CI) of KU vs Carbo” value in assay [1] (patient pairwise comparison) is on record as 0.34 KU. In assay [1], the “% >1” value was 82% and the “% >3” value was 9%. Further, the “Max Resp. (KU)” value in assay [2] was 6.7 KU.
